Assays:
[1] = target: Prostaglandin G/H synthase 1 / COX-1 (Ovis aries) (UniProt P05979); assay: Inhibition of sheep COX1
[2] = target: Prostaglandin G/H synthase 2 / COX-2 (Ovis aries) (UniProt P79208); assay: Inhibition of sheep COX2

Row | IC50 [1] [µM] | IC50 [2] [µM] | SMILES
1 | 13.4 | – | CS(=O)(=O)c1ccc(-c2cc(C(=O)O)c3ccccc3n2)cc1 [2-(4-(methylsulfonyl)phenyl)-quinoline-4-carboxylic acid]
2 | 21.8 | 0.085 | CC(=O)Nc1ccc(-c2cc(C(=O)O)c3cc(C(=O)c4ccccc4)ccc3n2)cc1 [2-(4-acetamido)phenyl)-6-benzoyl-quinoline-4-carboxylic acid]
3 | 9.2 | 0.08 | CC(=O)Nc1ccc(-c2cc(C(=O)O)c3cccc(C(=O)c4ccccc4)c3n2)cc1 [2-(4-acetamido)phenyl)-8-benzoyl-quinoline-4-carboxylic acid]
4 | > 100 | 0.077 | [N-]=[N+]=Nc1ccc(-c2cc(C(=O)O)c3cc(C(=O)c4ccccc4)ccc3n2)cc1 [2-(4-azido)phenyl)-6-benzoyl-quinoline-4-carboxylic acid]
5 | 65.5 | 0.057 | [N-]=[N+]=Nc1ccc(-c2cc(C(=O)O)c3cccc(C(=O)c4ccccc4)c3n2)cc1 [2-(4-azido)phenyl)-8-benzoyl-quinoline-4-carboxylic acid]
6 | 24.4 | 0.077 | CS(=O)(=O)c1ccc(-c2cc(C(=O)O)c3cc(C(=O)c4ccccc4)ccc3n2)cc1 [6-benzoyl-2-(4-(methylsulfonyl)phenyl)quinoline-4-carboxylic acid]
7 | 15.9 | 0.069 | CS(=O)(=O)c1ccc(-c2cc(C(=O)O)c3cccc(C(=O)c4ccccc4)c3n2)cc1 [8-benzoyl-2-(4-(methylsulfonyl)phenyl)quinoline-4-carboxylic acid]

From BindingDB's records for doi:10.1016/j.bmc.2010.06.094 (Shahid Beheshti University of Medical Sciences, 2010)
